Experiment [1] deals with T1, menin/MLL (terbium chelate-labeled menin, FITC-MBM1 peptide) (Homo sapiens, UniProt O00255, T541A).
T1 construct: Menin (a.a 1-610-6xhis tag)
T1 sequence (O00255 with tags, fused parts or gaps T541A): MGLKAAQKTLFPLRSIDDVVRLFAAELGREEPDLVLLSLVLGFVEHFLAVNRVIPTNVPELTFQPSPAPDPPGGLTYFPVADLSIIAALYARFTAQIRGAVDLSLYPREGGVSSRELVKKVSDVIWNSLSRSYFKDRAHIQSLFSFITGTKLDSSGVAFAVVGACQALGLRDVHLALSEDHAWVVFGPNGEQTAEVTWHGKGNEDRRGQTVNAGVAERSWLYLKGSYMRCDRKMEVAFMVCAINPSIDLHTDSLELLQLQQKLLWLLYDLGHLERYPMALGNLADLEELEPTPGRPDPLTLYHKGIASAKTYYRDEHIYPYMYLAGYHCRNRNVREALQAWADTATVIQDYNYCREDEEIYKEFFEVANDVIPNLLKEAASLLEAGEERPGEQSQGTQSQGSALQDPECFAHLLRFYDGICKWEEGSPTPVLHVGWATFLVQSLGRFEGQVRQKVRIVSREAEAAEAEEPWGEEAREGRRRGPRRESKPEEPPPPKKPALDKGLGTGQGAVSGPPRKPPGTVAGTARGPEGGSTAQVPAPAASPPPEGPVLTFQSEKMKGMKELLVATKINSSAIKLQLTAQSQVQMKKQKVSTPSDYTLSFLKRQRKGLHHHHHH
Description: Menin/MLL homogenous time-resolved fluorescence (HTRF) assay. The class given is binding. The settings on record: 30 min incubation. In short, it runs like this:
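Terbium-labeled menin (aa 1-610, His-tagged; 200 pM) preincubated 30 min with compound, then 75 nM FITC-MBM1 peptide added for 15 min at ambient temperature in pH 7.5 Tris buffer, 0.5% DMSO. HTRF ratio 520/490 nm converted to % inhibition. IC50 came from an 11-point four-fold titration from 10 μM, floor 0.1 nM.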
For orientation: Time-resolved FRET reads energy transfer from a long-lived donor to a nearby acceptor.

Experiment [2] relates to MOLM14 cells. Description: Proliferation assay, spheroid-like growth, MOLM14 (MLL-AF9 rearranged). The format is cell-based, human. The settings on record: Homo sapiens, MOLM-14, 192 h, 8 days, confluence as measure of spheroid size, read-out: spheroid assay_OneTime MOLM14 IC50. In short, it runs like this: (§1)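 Cells seeded in ultra-low attachment round-bottom wells (200 MOLM14 or 300 KO-52 per well) with compound at several concentrations, DMSO 0.3%, grown 8 days at 37° C, 5% CO2. Spheroid size taken as confluence from day-8 live-cell images; IC50 from variable-slope fit, DMSO as 0% and high-dose reference compound as 100% effect.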

In experiment [3] the test system is KO-52 cells. Description: Proliferation assay, spheroid-like growth, KO-52 (MLL wildtype control cell line). The format is cell-based, human. The following applies: Homo sapiens, 192 h, KO-52 control cells, 8 days, confluence as measure of spheroid size; read-out: spheroid assay_OneTime KO-52 IC50. Summed up:
as §1

The term IC50 denotes the midpoint of a concentration-inhibition curve.

For `CC(C)[C@H]([C@H]1C[C@@H](NC(=O)C2(F)CC2)C1)N1CC2(CCN(c3ncnnc3Oc3ccc(F)cc3-c3cncnc3C3CC3)C2)C1` (single isomer, unassigned) [Compound 301], the results for the 50% inhibitory concentration (IC50) in experiment [1], in experiment [2] and in experiment [3] were 0.2 nM, 33 nM and 2500 nM, respectively.
For the molecule `CC(C)[C@H]([C@H]1C[C@@H](NC(=O)C2CC2)C1)N1CC2(CCN(c3ncnnc3Oc3ccc(F)cc3-c3cncnc3C3CC3)C2)C1` (single isomer, unassigned) [Compound 303], the concentration for half-maximal inhibition (IC50) in experiment [1] was found to be 0.3 nM; in experiment [2] it was 7 nM; in experiment [3], 4530 nM.
Turning to `CC(C)[C@H]([C@H]1C[C@@H](NC(=O)C2CC2)C1)N1CC2(CCN(c3ncnnc3Oc3ccc(F)cc3-c3nnccc3C3CC3)C2)C1` (single isomer, unassigned) [Compound 304], the IC50 in experiment [1] was 0.1 nM; in experiment [2], 32 nM; in experiment [3], 12100 nM.
Take `CC(C)[C@H]([C@H]1C[C@@H](NC(=O)C2(F)CC2)C1)N1CC2(CCN(c3ncnnc3Oc3ccc(F)cc3-c3nnccc3C3CC3)C2)C1` (single isomer, unassigned) [Compound 305]: the results for the IC50 in experiment [1], in experiment [2] and in experiment [3] were 0.2 nM, 17 nM and 5780 nM, respectively.
For `CC(=O)N[C@H]1C[C@@H]([C@@H](C(C)C)N2CC3(CCN(c4ncnnc4Oc4ccc(F)cc4-c4nncnc4C4CC4)C3)C2)C1` (single isomer, unassigned) [Compound 306], the concentration for half-maximal inhibition (IC50) in experiment [1] turned out to be 0.3 nM; in experiment [2] it was 56 nM; in experiment [3], 6460 nM.
Regarding `CC(C)[C@H]([C@H]1C[C@@H](NC(=O)C2CC2)C1)N1CC2(CCN(c3ncnnc3Oc3ccc(F)cc3-c3nncn3C3CC3)C2)C1` (single isomer, unassigned) [Compound 307], the figures for the half-maximal inhibitory concentration (IC50) in experiment [1], in experiment [2] and in experiment [3] were 0.7 nM, more than 940 nM and more than 15000 nM, respectively.
For the molecule `CC(C)[C@H]([C@H]1C[C@@H](NC(=O)C2CC2)C1)N1CC2(CCN(c3ncnnc3Oc3ccc(F)cc3-n3ncnc3C3CC3)C2)C1` (single isomer, unassigned) [Compound 308], the concentration for half-maximal inhibition (IC50) in experiment [1] came to 0.2 nM; in experiment [2] it was 70 nM; in experiment [3], 4570 nM.
Regarding `CC(C)[C@H]([C@H]1C[C@@H](NC(=O)C2CC2)C1)N1CC2(CCN(c3ncnnc3Oc3ccc(F)cc3-c3n[nH]c(=O)cc3C3CC3)C2)C1` (single isomer, unassigned) [Compound 309], the results for the half-inhibitory concentration (IC50) in experiment [1], in experiment [2] and in experiment [3] were 0.2 nM, 22 nM and 7390 nM, respectively.
As to `CC(C)[C@H]([C@H]1C[C@@H](NC(=O)C2(F)CC2)C1)N1CC2(CCN(c3ncnnc3Oc3ccc(F)cc3-c3n[nH]c(=O)cc3C3CC3)C2)C1` (single isomer, unassigned) [Compound 311], the half-maximal inhibitory concentration (IC50) in experiment [1] turned out to be 0.3 nM; in experiment [2] it was 52 nM; in experiment [3], 9990 nM.
On to `CC(=O)N[C@H]1C[C@@H]([C@@H](C(C)C)N2CC3(CCN(c4ncnnc4Oc4ccc(F)cc4-c4cnccc4C4CC4)C3)C2)C1` (single isomer, unassigned) [Compound 312], for which the values for the 50% inhibitory concentration (IC50) in experiment [1], in experiment [2] and in experiment [3] were 0.2 nM, 5 nM and 1270 nM, respectively.
As for `CC(C)[C@H]([C@H]1C[C@]2(CCC(=O)N2)C1)N1CC2(CCN(c3ncnnc3Oc3ccc(F)cc3-c3cncnc3C3CC3)C2)C1` (single isomer, unassigned) [Compound 313], the IC50 was 43.4 nM in experiment [1], more than 940 nM in experiment [2] and more than 15000 nM in experiment [3].
The like results for `CC(C)[C@H]([C@H]1C[C@@H](N2CC3(CCN(C)C3=O)C2)C1)N1CC2(CCN(c3ncnnc3Oc3ccc(F)cc3-c3cncnc3C3CC3)C2)C1` (single isomer, unassigned) [Compound 315] were, in that order, 0.1 nM, 18 nM and 1960 nM.
For the molecule `CC(C)[C@H]([C@H]1C[C@@H](N2CC3(COC(=O)N3)C2)C1)N1CC2(CCN(c3ncnnc3Oc3ccc(F)cc3-c3cncnc3C3CC3)C2)C1` (single isomer, unassigned) [Compound 318], the half-maximal inhibitory concentration (IC50) in experiment [1] came out at 0.1 nM; in experiment [2], 26 nM; in experiment [3], 6900 nM.
On to `CC(C)[C@H]([C@H]1C[C@]2(COC(=O)N2)C1)N1CC2(CCN(c3ncnnc3Oc3ccc(F)cc3-c3cncnc3C3CC3)C2)C1` (single isomer, unassigned) [Compound 319], for which the IC50 in experiment [1] is 23.7 nM; in experiment [2], more than 940 nM; in experiment [3], more than 15000 nM.
Consider `CC(C)[C@@H]([C@H]1C[C@]2(COC(=O)N2)C1)N1CC2(CCN(c3ncnnc3Oc3ccc(F)cc3-c3cncnc3C3CC3)C2)C1` (single isomer, unassigned) [Compound 320], for which the IC50 came to 0.1 nM in experiment [1], 28 nM in experiment [2] and 4600 nM in experiment [3].
For the molecule `CC(C)[C@H]([C@H]1C[C@]2(COC(=O)N2)C1)N1CC2(CCN(c3ncnnc3Oc3ccc(F)cc3-c3ncccc3C3CC3)C2)C1` (single isomer, unassigned) [Compound 321], the IC50 was 91.1 nM in experiment [1], more than 940 nM in experiment [2] and more than 15000 nM in experiment [3].
`CC(C)[C@@H]([C@H]1C[C@]2(COC(=O)N2)C1)N1CC2(CCN(c3ncnnc3Oc3ccc(F)cc3-c3ncccc3C3CC3)C2)C1` (single isomer, unassigned) [Compound 322]: the IC50 in experiment [1] is 0.3 nM; in experiment [2], 30 nM; in experiment [3] it was more than 15000 nM.
`CC(C)[C@@H]([C@H]1C[C@]2(COC(=O)N2)C1)N1CC2(CCN(c3ncnnc3Oc3ccc(F)cc3-c3nnccc3C3CC3)C2)C1` (single isomer, unassigned) [Compound 324]: the 50% inhibitory concentration (IC50) in experiment [1] is 117 nM; in experiment [2], more than 940 nM; in experiment [3] it was more than 15000 nM.
Take `CC(C)[C@H]([C@H]1C[C@@H](N2CCC3(COC3)C2)C1)N1CC2(CCN(c3ncnnc3Oc3ccc(F)cc3-c3cncnc3C3CC3)C2)C1` (single isomer, unassigned) [Compound 325]: the figures for the IC50 in experiment [1], in experiment [2] and in experiment [3] were 0.1 nM, 4 nM and 4980 nM, respectively.
Regarding `COC1(C(=O)N[C@H]2C[C@@H]([C@@H](C(C)C)N3CC4(CCN(c5ncnnc5Oc5ccc(F)cc5-c5cncnc5C5CC5)C4)C3)C2)CC1` (single isomer, unassigned) [Compound 330], the half-maximal inhibitory concentration (IC50) in experiment [1] is 0.4 nM; in experiment [2] it was 130 nM; in experiment [3], 5900 nM.
For the molecule `CO[C@H]1CCN([C@H]2C[C@@H](C(C(C)C)N3CC4(CCN(c5ncnnc5Oc5ccc(F)cc5-c5nnccc5C5CC5)C4)C3)C2)C1` (single isomer, unassigned) [Compound 331], the half-inhibitory concentration (IC50) came to 0.2 nM in experiment [1], 3 nM in experiment [2] and 2850 nM in experiment [3].
Turning to `CC(C)[C@H](C1CCN(CC2COC2)CC1)N1CC2(CCN(c3ncnnc3Oc3ccc(F)cc3-c3cnc(C#N)nc3C3CC3)C2)C1` (single isomer, unassigned) [Compound 333], the 50% inhibitory concentration (IC50) is 0.1 nM in experiment [1], 38 nM in experiment [2] and 820 nM in experiment [3].
On the same counts, the results for `Fc1ccc(Oc2nncnc2N2CCC3(C2)CN([C@H](C2CCN(CC4COC4)CC2)C24CC(C2)C4)C3)c(-c2cncnc2C2CC2)c1` (single isomer, unassigned) [Compound 335] are 0.2 nM, 30 nM and 3240 nM.
Consider `Fc1ccc(Oc2nncnc2N2CCC3(C2)CN([C@@H](C2CCN(CC4COC4)CC2)C24CC(C2)C4)C3)c(-c2cncnc2C2CC2)c1` (single isomer, unassigned) [Compound 336], for which the IC50 in experiment [1] turned out to be 0.6 nM; in experiment [2], 180 nM; in experiment [3] it was 7650 nM.
With `O=c1cc(C2CC2)c(-c2cc(F)ccc2Oc2nncnc2N2CCC3(C2)CN([C@@H](C2CCN(CC4COC4)CC2)C24CC(C2)C4)C3)n[nH]1` (single isomer, unassigned) [Compound 339], the figures for the half-inhibitory concentration (IC50) in experiment [1], in experiment [2] and in experiment [3] were 0.4 nM, more than 940 nM and more than 15000 nM, respectively.
On the same counts, the results for `CS(=O)(=O)C1CCN([C@H]2C[C@@H]([C@@H](N3CC4(CCN(c5ncnnc5Oc5ccc(F)cc5-c5cncnc5C5CC5)C4)C3)C34CC(C3)C4)C2)CC1` (single isomer, unassigned) [Compound 341] are 3 nM, more than 940 nM and more than 15000 nM.
